HELM strings list units from the 5' end as sugar, base in round brackets, then linkage (d deoxyribose, r ribose, m 2'-O-methyl, p phosphodiester). Strings are as the collection lists them; they lack the last nucleoside at the 3' end of the tested compound. [moe] = 2'-O-(2-methoxyethyl) (MOE); [sp] = phosphorothioate linkage; [m5C] = 5-methylcytosine
target: PRNP; experiment: mouse, dose not given; conditions: ASO

Row | Substance | 3 h FOB score
1 | RNA1{[moe]([m5C])[sp].[moe](T)p.[moe](G)p.[moe]([m5C])p.[moe]([m5C])[sp].d(T)[sp].d(T)[sp].d(A)[sp].d(A)[sp].d(T)[sp].d(T)[sp].d(A)[sp].d([m5C])[sp].d([m5C])[sp].d(T)[sp].[moe](A)p.[moe](T)p.[moe](A)[sp].[moe](G)}$$$$ (last 3' nucleoside missing) | 0.25 score 0-7
2 | RNA1{[moe]([m5C])[sp].[moe](T)p.[moe](T)p.[moe](A)p.[moe](A)[sp].d(T)[sp].d(T)[sp].d(A)[sp].d(G)[sp].d(T)[sp].d(T)[sp].d(A)[sp].d([m5C])[sp].d(A)[sp].d(T)[sp].[moe]([m5C])p.[moe](G)p.[moe](G)[sp].[moe](G)}$$$$ (last 3' nucleoside missing) | 4.5 score 0-7
3 | RNA1{[moe]([m5C])[sp].[moe](T)p.[moe](T)p.[moe](A)p.[moe](T)[sp].d(T)[sp].d(A)[sp].d(T)[sp].d(T)[sp].d([m5C])[sp].d(A)[sp].d(T)[sp].d(G)[sp].d(T)[sp].d(T)[sp].[moe]([m5C])p.[moe](T)p.[moe]([m5C])[sp].[moe]([m5C])}$$$$ (last 3' nucleoside missing) | 1.25 score 0-7
4 | RNA1{[moe]([m5C])[sp].[moe](T)p.[moe](T)p.[moe](A)p.[moe](T)p.d(T)[sp].d(A)[sp].d(T)[sp].d(T)[sp].d([m5C])[sp].d(A)[sp].d(T)[sp].d(G)[sp].d(T)[sp].[moe](T)p.[moe]([m5C])p.[moe](T)[sp].[moe]([m5C])}$$$$ (last 3' nucleoside missing) | 0 score 0-7
5 | RNA1{[moe]([m5C])[sp].[moe](T)p.[moe](T)p.[moe](A)p.[moe]([m5C])[sp].d(T)[sp].d([m5C])[sp].d(G)[sp].d(G)[sp].d([m5C])[sp].d(T)[sp].d(T)[sp].d(G)[sp].d(T)[sp].d(T)[sp].[moe]([m5C])p.[moe]([m5C])p.[moe](A)[sp].[moe]([m5C])}$$$$ (last 3' nucleoside missing) | 0 score 0-7
6 | RNA1{[moe]([m5C])[sp].[moe](T)p.[moe](T)p.[moe](A)p.[moe]([m5C])p.d(T)[sp].d([m5C])[sp].d(G)[sp].d(G)[sp].d([m5C])[sp].d(T)[sp].d(T)[sp].d(G)[sp].d(T)[sp].[moe](T)p.[moe]([m5C])p.[moe]([m5C])[sp].[moe](A)}$$$$ (last 3' nucleoside missing) | 1.75 score 0-7
7 | RNA1{[moe]([m5C])[sp].[moe](T)p.[moe](T)p.[moe](T)p.[moe](T)[sp].d([m5C])[sp].d(T)[sp].d(T)[sp].d(T)[sp].d(G)[sp].d([m5C])[sp].d(A)[sp].d([m5C])[sp].d(A)[sp].d([m5C])[sp].[moe](T)p.[moe](G)p.[moe](A)[sp].[moe]([m5C])}$$$$ (last 3' nucleoside missing) | 4 score 0-7
8 | RNA1{[moe]([m5C])[sp].[moe](T)p.[moe](T)p.[moe](T)p.[moe]([m5C])[sp].d([m5C])[sp].d(T)[sp].d(G)[sp].d(A)[sp].d(T)[sp].d(A)[sp].d(G)[sp].d(T)[sp].d(T)[sp].d([m5C])[sp].[moe](A)p.[moe]([m5C])p.[moe](T)[sp].[moe](G)}$$$$ (last 3' nucleoside missing) | 2.5 score 0-7
9 | RNA1{[moe]([m5C])[sp].[moe](T)p.[moe]([m5C])p.[moe](A)p.[moe](G)[sp].d(G)[sp].d(T)[sp].d([m5C])[sp].d(T)[sp].d(A)[sp].d([m5C])[sp].d(T)[sp].d([m5C])[sp].d(T)[sp].d(A)[sp].[moe](T)p.[moe](G)p.[moe](T)[sp].[moe](T)}$$$$ (last 3' nucleoside missing) | 0 score 0-7
10 | RNA1{[moe]([m5C])[sp].[moe](T)p.[moe]([m5C])p.[moe](T)p.[moe](A)[sp].d(T)[sp].d(G)[sp].d(T)[sp].d(T)[sp].d(T)[sp].d(T)[sp].d([m5C])[sp].d([m5C])[sp].[moe](A)p.[moe](G)p.[moe](T)[sp].[moe](G)}$$$$ (last 3' nucleoside missing) | 0.75 score 0-7
